Molecules are shown by their SMILES.

For the first test, the system named is Rattus norvegicus. The test is described as follows: Tested for the decrease in blood pressure at a dose of ~10 mg/kg by intravenous administration for ~24h. The format is functional.
For the compound `CCCCc1nc(Cl)c(CO)n1Cc1ccc(-c2ccccc2-c2nnn[nH]2)cc1` [LOSARTAN], the Blood pressure was 37 mmHg.

A further test deals with Rattus norvegicus. As to the kind of experiment: Tested for the decrease in blood pressure at a dose of ~5 mg/kg by intravenous administration for ~24h. Format: functional.
For `CCCCCc1nc(SCc2ccc(-c3ccccc3C(=O)O)cc2)nn1Cc1ccc(-c2ccccc2C(=O)O)cc1`, the Blood pressure is recorded as 24 mmHg.

The target of a further test is Oryctolagus cuniculus angiotensin II receptor. As to the kind of experiment: Inhibition of angiotensin II induced contractions in rabbit aortic ring preparation.
`O=C(O)c1ccccc1-c1ccc(CSc2nc(Cc3ccccc3)n(Cc3ccc(-c4ccccc4C(=O)O)cc3)n2)cc1` showed a pA2 of 7.

On to `CCCCCCCCc1nc(S(=O)(=O)Cc2ccc(-c3ccccc3C(=O)O)cc2)nn1Cc1ccc(-c2ccccc2C(=O)O)cc1`, for which the pA2 was found to be 6.1.

Compound `CCCCCCCc1nc(S(=O)(=O)Cc2ccc(-c3ccccc3C(=O)O)cc2)nn1Cc1ccc(-c2ccccc2C(=O)O)cc1` had a pA2 of 6.5.

`CCCCCCCc1nc(SCc2ccc(-c3ccccc3C(=O)O)cc2)nn1Cc1ccc(-c2ccccc2C(=O)O)cc1` registered a pA2 of 6.7.

Compound `CCCCCc1nc(SCc2ccc(-c3ccccc3C(=O)O)cc2)nn1Cc1ccc(-c2ccccc2C#N)cc1` yielded a pA2 of less than 5.

With `CCCCc1nc(SCc2ccc(-c3ccccc3C(=O)O)cc2)n(Cc2ccc(-c3ccccc3C(=O)O)cc2)n1`, the pA2 is reported as 7.

For the compound `CCCCCCc1nc(S(=O)(=O)Cc2ccc(-c3ccccc3C(=O)O)cc2)nn1Cc1ccc(-c2ccccc2C(=O)O)cc1`, the pA2 is recorded as 8.1.

With `CC(C)Cc1nc(SCc2ccc(-c3ccccc3C(=O)O)cc2)nn1Cc1ccc(-c2ccccc2C(=O)O)cc1`, the pA2 was 7.5.

`CCCCc1nc(SCc2ccc(-c3ccccc3C(=O)OC)cc2)nn1Cc1ccc(-c2ccccc2C(=O)OC)cc1` showed a pA2 of less than 5.

Compound `CCCCc1nc(SCc2ccc(-c3ccccc3C(=O)O)cc2)nn1Cc1ccc(-c2ccccc2C(=O)O)cc1` had a pA2 of 8.3.

`CCCCCc1nc(SCc2ccc(-c3ccccc3C(=O)OC)cc2)nn1Cc1ccc(-c2ccccc2C(=O)OC)cc1` yielded a pA2 of less than 5.

`O=C(O)c1ccccc1-c1ccc(CSc2nc(Cc3ccccc3)nn2Cc2ccc(-c3ccccc3C(=O)O)cc2)cc1` registered a pA2 of 6.1.

`CCCCCCCc1nc(SCc2ccc(-c3ccccc3C(=O)O)cc2)n(Cc2ccc(-c3ccccc3C(=O)O)cc2)n1` had a pA2 of 5.9.

Regarding `CCCCCc1nc(SCc2ccc(-c3ccccc3C(=O)O)cc2)nn1Cc1ccc(-c2ccccc2C(=O)O)cc1`, the pA2 was determined as 8.4.

`CCCCCc1nc(SCc2ccc(-c3ccccc3C#N)cc2)nn1Cc1ccc(-c2ccccc2C(=O)O)cc1` yielded a pA2 of 6.3.

Compound `CCCCCCc1nc(SCc2ccc(-c3ccccc3C(=O)O)cc2)nn1Cc1ccc(-c2ccccc2C(=O)O)cc1` gave a pA2 of 8.

For `CCCCCc1nc(SCc2ccc(-c3ccccc3C(=O)O)cc2)n(Cc2ccc(-c3ccccc3C(=O)O)cc2)n1`, the pA2 is 7.2.

By pA2 is commonly meant a measure of antagonist potency on a negative log scale.

Source of the values: ChEMBL document CHEMBL1127194, “1,3- And 1,5-bisbiphenylyl substituted 3-metcaptotriazoles as angiotensin II receptor antagonists” (Bioorg Med Chem Lett, 1993).
